Patent US8796320B2, “1,3,4-Oxadiazole-2-carboxamide compound” (General Incorporated Association Pharma Valley Project …, priority 2009, dated 2014)
Structures can show the parent of a compound that is named as a salt.

Tests used:
Format in all cases: cell-based
MDA-MB-468 = MDA-MB-468 cell growth inhibitory activity; conditions: Homo sapiens; compound at 20 μM; MDA-MB-468, 72 hours
Experimental: MDA-MB-468 diluted with phenol red-free DMEM/F-12 (GIBCO; 10% FBS, 20 units/ml penicillin/streptomycin) was inoculated at a concentration of 2000 cells/well to a 96-well plate (Greiner Bio-One) and cultured overnight at 37° C. in the presence of 5% CO2. Then, a test sample solution (containing 2 (v/v)% DMSO) adjusted to 10 μM was added thereto at a concentration of 10 μL/well and contacted with the cells at 37° C. for 72 hours in the presence of 5% CO2. Each well was washed three times with a medium. Then, after addition of 100 μL/well of a medium and 20 μL/well of CellTiter 96 AQueous, One Solution Reagent (Promega Corp.), the cells were incubated at 37° C. for 2 hours in the presence of 5% CO2. Absorbance at 495 nm was measured using Multiplate reader (Molecular Devices, Inc.), and the rate of inhibition of cell growth was calculated according to the following formula: Rate of inhibition of cell growth (%)=100−100×(Abschem−bkgd)/(AbsDMSO−bkgd) • Abschem: absorbance obtained by the addition of a test sample • AbsDMSO: absorbance obtained by the addition of only a solvent for test sample dissolution • bkgd: absorbance obtained by the addition of CellTiter 96 AQueous One Solution Reagent to a medium for cell culture
The test results were indicated in the rate of inhibition of cell growth by each compound at a concentration of 20 μM.

STAT3 = STAT3 transcription inhibition test (reporter gene method); conditions: Homo sapiens; compound at 100 μM; STAT3 reporter HeLa stable cell line, oncostatin M 10 ng/mL, 4 hours; read-out: STAT3 transcription inhibitory activity (%)
Experimental: The inhibition of STAT3 transcription was evaluated by using STAT3 reporter HeLa stable cell line (Panomics Inc., catalog No. RC0003), a cell line for the reporter gene method, and performing the following method according to the appendix included therein.
STAT3, reporter HeLa stable cell line subcultured and maintained in a Dulbecco's modified Eagle's medium (DMEM) containing 10% fetal bovine serum, 100 units/mL penicillin, and 100 μg/mL streptomycin was inoculated at a concentration of 40000 cells/well to a 96-well plate (white) and attached to the plate by overnight incubation at 37° C. under 5% CO2. After addition of each evaluation compound adjusted to various concentrations (adjusted with a DMSO solution), the cells were precultured for 1 hour. Then, oncostatin M for activating STAT3 was added at a final concentration 10 ng/mL, and the cells were further cultured at 37° C. under 5% CO2 for 4 hours. Luciferase activity derived from the cells was determined using Steady-Glo Luciferase Assay System (Promega Corp.), and STAT3 transcriptional activity scores were calculated according to the following formula: STAT3 transcriptional activity score (%)=100×(Lchem−L0)/(LDMSO−L0) • L0: luminescence intensity obtained without stimulation with oncostatin M • Lchem: luminescence intensity obtained by the addition of a test sample • LDMSO: luminescence intensity obtained by the addition of only a solvent for dissolving a test sample
The test results were indicated in the rate of inhibition of STAT3 transcription by each compound at a concentration of 100 μM.

[1] = system: Human lymphoma SCC-3 cells; test: SCC-3 cell growth inhibition test (MTT method); conditions: 72-hour culture
Experimental: Human lymphoma SCC-3 cells purchased from Japan Health Sciences Foundation were cultured for […] at a density of 5000 cells/well in a 96-well plate with RPMI1640 (Sigma-Aldrich Corp.) containing 10% fetal bovine serum (FBS; GIBCO) as a culture medium.
Simultaneously with cell inoculation, each test compound diluted to various concentrations with an RPMI medium was added to each well. After 72-hour culture, cell growth inhibitory activity was determined by the MTT method (J. Immunol. Methods, 1993, 65, 581-593) using a microplate reader (NJ-2300, BioTek Instruments, Inc.).
The test results were indicated in a concentration (IC50) at which 50% cell growth was inhibited.

Row | Compound | IC50 [1] | inhibition at 20 µM (MDA-MB-468) | inhibition at 100 µM (STAT3)
1 | O=C(Nc1nnc(-c2ccco2)o1)c1cccc(-c2ccc(Cl)cc2)c1 [Compound Ia-11, 4′-Chloro-N-[5-(2-furyl)-1,3,4-oxadiazol-2-yl]-3-biphenylcarboxamide] | 1800 nM | – | 67%
2 | NS(=O)(=O)c1ccc(-c2cccc(C(=O)Nc3nnc(-c4ccco4)o3)c2)cc1 [Compound Ia-25, N-[5-(2-Furyl)-1,3,4-oxadiazol-2-yl]-4′-sulfamoyl-3-biphenylcarboxamide] | 53000 nM | – | 70%
3 | O=Cc1ccc(-c2cccc(C(=O)Nc3nnc(-c4ccco4)o3)c2)cc1 [Compound Ia-17, 4′-Formyl-N-[5-(2-furyl)-1,3,4-oxadiazol-2-yl]-3-biphenylcarboxamide] | 4000 nM | 54% | > 100%
4 | CC(=O)c1ccc(-c2cccc(C(=O)Nc3nnc(-c4ccco4)o3)c2)cc1 [Compound Ia-18, 4′-Acetyl-N-[5-(2-furyl)-1,3,4-oxadiazol-2-yl]-3-biphenylcarboxamide] | 1900 nM | – | 71%
5 | N#Cc1ccc(-c2cccc(C(=O)Nc3nnc(-c4ccco4)o3)c2)cc1 [Compound Ia-21, 4′-Cyano-N-[5-(2-furyl)-1,3,4-oxadiazol-2-yl]-3-biphenylcarboxamide] | 1700 nM | 91% | 62%
6 | COc1cc([N+](=O)[O-])ccc1-c1ccc(C(=O)Nc2nnc(-c3ccco3)o2)o1 [Compound Ic-18, N-[5-(2-Furyl)-1,3,4-oxadiazol-2-yl]-5-(2-methoxy-4-nitrophenyl)-2-furancarboxamide] | 16000 nM | 76% | –

These reach a lower IC50 [1]. Values come first.

Row | IC50 [1] | Compound | inhibition at 20 µM (MDA-MB-468) | inhibition at 100 µM (STAT3)
7 | < 100 nM | CCc1ccc(-c2ccc(-c3cccc(C(=O)Nc4nnc(-c5ccco5)o4)c3)cc2)cc1 [Compound Ia-78, 4″-Ethyl-N-[5-(2-Furyl)-1,3,4-oxadiazol-2-yl]-3-(p-terphenyl)carboxamide] | 64% | 70%
8 | 1100 nM | Cn1ccc2cc(-c3cccc(C(=O)Nc4nnc(-c5ccco5)o4)c3)ccc21 [Compound Ia-50, N-[5-(2-Furyl)-1,3,4-oxadiazol-2-yl]-3-(1-methyl-5-indolyl)benzenecarboxamide] | 51% | > 100%
9 | < 100 nM | O=C(Nc1nnc(-c2ccco2)o1)c1cccc(-c2ccc(-c3ccc4ccccc4c3)cc2)c1 [Compound Ia-83, N-[5-(2-Furyl)-1,3,4-oxadiazol-2-yl]-4′-(2-naphthyl)-3-biphenylcarboxamide] | 71% | 75%
10 | 600 nM | O=C(Nc1nnc(-c2ccco2)o1)c1cccc(-c2ccc(N3CCOCC3)cc2)c1 [Compound Ia-87, N-[5-(2-Furyl)-1,3,4-oxadiazol-2-yl]-4′-morpholino-3-biphenylcarboxamide formate] | – | 92%
11 | 200 nM | O=C(Nc1nnc(-c2ccco2)o1)c1cccc(-c2ccc(-c3ccccc3)c(F)c2)c1 [Compound Ia-76, 3′-Fluoro-N-[5-(2-furyl)-1,3,4-oxadiazol-2-yl]-3-(p-terphenyl)carboxamide] | 72% | 69%
12 | < 100 nM | O=C(Nc1nnc(-c2ccco2)o1)c1cccc(-c2ccc(C3CCCCC3)cc2)c1 [Compound Ia-84, 4′-Cyclohexyl-N-[5-(2-furyl)-1,3,4-oxadiazol-2-yl]-3-biphenylcarboxamide] | 68% | 74%
13 | 1000 nM | C=Cc1ccc(-c2cccc(C(=O)Nc3nnc(-c4ccco4)o3)c2)cc1 [Compound Ia-13, N-[5-(2-Furyl)-1,3,4-oxadiazol-2-yl]-4′-vinyl-3-biphenylcarboxamide] | – | 67%
14 | 700 nM | COc1ccc(-c2cc(C(=O)Nc3nnc(-c4ccco4)o3)c3sc(N4CCCCC4)nc3n2)cc1OC [Compound Ib-4, N-[5-(2-Furyl)-1,3,4-oxadiazol-2-yl]-5-(3,4-dimethoxyphenyl)-2-piperidino-7-thiazolo[4,5-b]pyridinecarboxamide] | 78% | > 100%
